The subject of this test is 282377-053-R-J1-PDC complex spheroid viability. The experiment in a line: Anticancer human tumor 282377-053-R-J1-PDC patient-derived colon adenocarcinoma cell line growth inhibition [RAS]. As to conditions: for viability, T/C: stronger effect = lower value. A digest of the protocol:
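Agents were tested in combination matrices in half-log decrements from a top concentration at or near clinical Cmax (10 microM if undetermined). Targets were multi-cell spheroids of tumour lines plus HUVEC and MSC stromal cells.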

Bounds are passed on as bounds.
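Also: spheroids exposed to agents for seven days before readout.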
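For viability, T/C in this document: luminescence viability as percent of DMSO vehicle control wells.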

`CC(C)NCC(C(=O)N1CCN(c2ncnc3c2C(C)CC3O)CC1)c1ccc(Cl)cc1` (centres undefined) + C=CC(=O)N1CCN(c2nc(OCC3CCCN3C)nc3c(F)c(-c4nc(N)cc(C)c4C(F)(F)F)c(Cl)cc23)C(C)C1: the IC50 (commonly the point on the concentration scale where inhibition reaches its midpoint) (curve of first compound, second compound 0.00316 µM) is greater than 10 µM; the IC50 (curve of first compound, second compound 0.01 µM) is greater than 10 µM; the IC50 (curve of first compound, second compound 0.0316 µM) is greater than 10 µM; the IC50 (curve of first compound, second compound 0.1 µM) is greater than 10 µM; the IC50 (curve of first compound, second compound 0.316 µM) is greater than 10 µM; the half-inhibitory concentration (IC50) (curve of first compound, second compound 1 µM) was greater than 10 µM. Moreover, the viability, T/C (in general, the ratio of treated to control) was 104% (second compound 0.00316 µM, first compound 0.0316 µM); 108% (second compound 0.00316 µM, first compound 0.1 µM); 96.2% (second compound 0.00316 µM, first compound 0.316 µM); 94.1% (second compound 0.00316 µM, first compound 1 µM); 88.8% (second compound 0.00316 µM, first compound 3.16 µM); 84.7% (second compound 0.00316 µM, first compound 10 µM). In addition, the viability, T/C (second compound 0.01 µM, first compound 0.0316 µM) was 99.3%; the viability, T/C (second compound 0.01 µM, first compound 0.1 µM) was 107%; the viability, T/C (second compound 0.01 µM, first compound 0.316 µM) is 83.2%; the viability, T/C (second compound 0.01 µM, first compound 1 µM) was 110%; the viability, T/C (second compound 0.01 µM, first compound 3.16 µM) is 89.5%; the viability, T/C (second compound 0.01 µM, first compound 10 µM) is 75.6%. Moreover, the viability, T/C by setting is: (second compound 0.0316 µM, first compound 0.0316 µM) 98.2%; (second compound 0.0316 µM, first compound 0.1 µM) 99.3%; (second compound 0.0316 µM, first compound 0.316 µM) 89.3%; (second compound 0.0316 µM, first compound 1 µM) 97.3%; (second compound 0.0316 µM, first compound 3.16 µM) 91.8%; (second compound 0.0316 µM, first compound 10 µM) 85.4%. The viability, T/C was 97.9% (second compound 0.1 µM, first compound 0.0316 µM); 105% (second compound 0.1 µM, first compound 0.1 µM); 98.7% (second compound 0.1 µM, first compound 0.316 µM); 95.8% (second compound 0.1 µM, first compound 1 µM); 82.7% (second compound 0.1 µM, first compound 3.16 µM); 79.8% (second compound 0.1 µM, first compound 10 µM). The viability, T/C is 101% (second compound 0.316 µM, first compound 0.0316 µM); 96.7% (second compound 0.316 µM, first compound 0.1 µM); 96.2% (second compound 0.316 µM, first compound 0.316 µM); 98% (second compound 0.316 µM, first compound 1 µM); 101% (second compound 0.316 µM, first compound 3.16 µM); 84.8% (second compound 0.316 µM, first compound 10 µM). Also, the viability, T/C is 100% (second compound 1 µM, first compound 0.0316 µM); 88.5% (second compound 1 µM, first compound 0.1 µM); 118% (second compound 1 µM, first compound 0.316 µM); 78.9% (second compound 1 µM, first compound 1 µM); 68.7% (second compound 1 µM, first compound 3.16 µM); 76% (second compound 1 µM, first compound 10 µM).
As for `CC(C)NCC(C(=O)N1CCN(c2ncnc3c2C(C)CC3O)CC1)c1ccc(Cl)cc1` (centres undefined), the viability, T/C was 95.3% [middle of 4 runs] (compound 0.0316 µM), 94.8% [middle of 4 runs] (compound 1 µM), 90.4% [middle of 4 runs] (compound 3.16 µM) and 80.6% [middle of 4 runs] (compound 10 µM). In addition, the IC50 (curve of compound) was greater than 10 µM.
For the compound `CCc1c2c(nc3ccc(O)cc13)-c1cc3c(c(=O)n1C2)COC(=O)[C@]3(O)CC` + CCn1c(-c2cccnc2C(C)OC)c2c3cc(ccc31)N1CCOC(CC(NC(=O)C(C(C)C)N(C)C(=O)C3(F)CCN(C(=O)C#CC(C)(C)N(C)C)CC3)C(=O)N3CCCC(N3)C(=O)OCC(C)(C)C2)C1, the half-inhibitory concentration (IC50) reads like this: (curve of first compound, second compound 0.000949 µM) greater than 0.3 µM; (curve of first compound, second compound 0.003 µM) greater than 0.3 µM; (curve of first compound, second compound 0.00949 µM) greater than 0.3 µM; (curve of first compound, second compound 0.03 µM) greater than 0.3 µM; (curve of first compound, second compound 0.0949 µM) greater than 0.3 µM; (curve of first compound, second compound 0.3 µM) 0.182 µM. For the same compound, the viability, T/C (second compound 0.000949 µM, first compound 0.000949 µM) was 133%; the viability, T/C (second compound 0.000949 µM, first compound 0.003 µM) is 105%; the viability, T/C (second compound 0.000949 µM, first compound 0.00949 µM) was 161%; the viability, T/C (second compound 0.000949 µM, first compound 0.03 µM) was 108%; the viability, T/C (second compound 0.000949 µM, first compound 0.0949 µM) was 95.5%; the viability, T/C (second compound 0.000949 µM, first compound 0.3 µM) was 90.6%. The viability, T/C was 111% (second compound 0.003 µM, first compound 0.000949 µM); 125% (second compound 0.003 µM, first compound 0.003 µM); 131% (second compound 0.003 µM, first compound 0.00949 µM); 99.1% (second compound 0.003 µM, first compound 0.03 µM); 122% (second compound 0.003 µM, first compound 0.0949 µM); 98.8% (second compound 0.003 µM, first compound 0.3 µM). The viability, T/C (second compound 0.00949 µM, first compound 0.000949 µM) is 129%; the viability, T/C (second compound 0.00949 µM, first compound 0.003 µM) is 110%; the viability, T/C (second compound 0.00949 µM, first compound 0.00949 µM) was 142%; the viability, T/C (second compound 0.00949 µM, first compound 0.03 µM) is 115%; the viability, T/C (second compound 0.00949 µM, first compound 0.0949 µM) is 98%; the viability, T/C (second compound 0.00949 µM, first compound 0.3 µM) is 85.1%. For the same compound, the viability, T/C is 95% (second compound 0.03 µM, first compound 0.000949 µM); 115% (second compound 0.03 µM, first compound 0.003 µM); 146% (second compound 0.03 µM, first compound 0.00949 µM); 139% (second compound 0.03 µM, first compound 0.03 µM); 110% (second compound 0.03 µM, first compound 0.0949 µM); 94.4% (second compound 0.03 µM, first compound 0.3 µM). Moreover, the viability, T/C was 119% (second compound 0.0949 µM, first compound 0.000949 µM); 143% (second compound 0.0949 µM, first compound 0.003 µM); 163% (second compound 0.0949 µM, first compound 0.00949 µM); 136% (second compound 0.0949 µM, first compound 0.03 µM); 110% (second compound 0.0949 µM, first compound 0.0949 µM); 82.4% (second compound 0.0949 µM, first compound 0.3 µM). In addition, the viability, T/C is 96.7% (second compound 0.3 µM, first compound 0.000949 µM); 135% (second compound 0.3 µM, first compound 0.003 µM); 149% (second compound 0.3 µM, first compound 0.00949 µM); 117% (second compound 0.3 µM, first compound 0.03 µM); 69.8% (second compound 0.3 µM, first compound 0.0949 µM); 35% (second compound 0.3 µM, first compound 0.3 µM).
Take `O=C(c1ccc(F)c(F)c1Nc1ccc(I)cc1F)N1CC(O)([C@@H]2CCCCN2)C1`: the viability, T/C is 75.2% [middle of 4 runs] (compound 0.00316 µM), 53.5% [middle of 4 runs] (compound 0.1 µM), 28.1% [middle of 4 runs] (compound 0.316 µM) and 20.8% [middle of 4 runs] (compound 1 µM). Besides, where the note is “curve of compound”, the IC50 was 79.8 nM [middle of 4 runs].
